Results from patent US20140323418A1, “SELECTIVE KINASE INHIBITORS” (PORTOLA PHARMACEUTICALS, INC., priority 2011, published 2014).

biological target: T1, full length active recombinant SYK enzyme (Homo sapiens, UniProt P43405); experiment: Inhibition of Syk tyrosine phosphorylation activity (LANCE TR-FRET kinase assay); format: biochemical; settings: 1 nM SYK, 550 nM substrate, 100 μM ATP, 1 hour room temperature
T1 construct: full length active recombinant SYK enzyme (Millipore, Calif.); purchased Millipore

IC50 [µM]	SMILES
0.01 to 0.1	NC(=O)c1cnc(N[C@@H]2CCCC(F)(F)[C@@H]2N)nc1Nc1ccc2ncsc2c1 [Example 29, 2-(((1R,2R)-2-amino-3,3-difluorocyclohexyl)amino)-4-(benzo[d]thiazol-6-ylamino)pyrimidine-5-carboxamide]
0.1 to 1	NC(=O)c1cnc(N[C@@H]2CCCC(F)(F)[C@@H]2N)nc1Nc1ccc2scnc2c1 [Example 30, 2-(((1R,2R)-2-amino-3,3-difluorocyclohexyl)amino)-4-(benzo[d]thiazol-5-ylamino)pyrimidine-5-carboxamide]
0.01 to 0.1	NC(=O)c1cnc(N[C@@H]2CCCC(F)(F)[C@@H]2N)nc1Nc1csc2ncccc12 [Example 31, 2-(((1R,2R)-2-amino-3,3-difluorocyclohexyl)amino)-4-(thieno[2,3-b]pyridin-3-ylamino)pyrimidine-5-carboxamide]
0.1 to 1	Cc1cc(C)cc(Nc2nc(N[C@@H]3CCCC(F)(F)[C@@H]3N)ncc2C(N)=O)c1 [Example 33, 2-(((1R,2R)-2-amino-3,3-difluorocyclohexyl)amino)-4-((3,5-dimethylphenyl)amino)pyrimidine-5-carboxamide]
0.001 to 0.01	NC(=O)c1cnc(N[C@H]2[C@@H](N)CCCC2(F)F)nc1Nc1cccc(-n2cccn2)c1 [Example 34, 4-((3-(1H-pyrazol-1-yl)phenyl)amino)-2-(((1S,6S)-6-amino-2,2-difluorocyclohexyl)amino)pyrimidine-5-carboxamide]
0.01 to 0.1	NC(=O)c1cnc(N[C@H]2[C@@H](N)CCCC2(F)F)nc1Nc1cccc(-c2ncccn2)c1 [Example 35, 2-(((1S,6S)-6-amino-2,2-difluorocyclohexyl)amino)-4-((3-(pyrimidin-2-yl)phenyl)amino)pyrimidine-5-carboxamide]
0.01 to 0.1	NC(=O)c1cnc(N[C@H]2[C@@H](N)CCCC2(F)F)nc1Nc1csc2ncccc12 [Example 36, 2-(((1S,6S)-6-amino-2,2-difluorocyclohexyl)amino)-4-(thieno[2,3-b]pyridin-3-ylamino)pyrimidine-5-carboxamide]
0.01 to 0.1	NC(=O)c1cnc(N[C@H]2[C@@H](N)CCCC2(F)F)nc1Nc1cnn2ccccc12 [Example 37, 2-(((1S,6S)-6-amino-2,2-difluorocyclohexyl)amino)-4-(pyrazolo[1,5-a]pyridin-3-ylamino)pyrimidine-5-carboxamide]
0.01 to 0.1	Cc1ccc(Nc2nc(N[C@H]3[C@@H](N)CCCC3(F)F)ncc2C(N)=O)cc1 [Example 38, 2-(((1S,6S)-6-amino-2,2-difluorocyclohexyl)amino)-4-(p-tolylamino)pyrimidine-5-carboxamide]
0.01 to 0.1	Cc1cccc(Nc2nc(N[C@H]3[C@@H](N)CCCC3(F)F)ncc2C(N)=O)c1 [Example 39, 2-(((1S,6S)-6-amino-2,2-difluorocyclohexyl)amino)-4-(m-tolylamino)pyrimidine-5-carboxamide]
0.001 to 0.01	NC(=O)c1cnc(N[C@@H]2CCCC[C@@H]2N)nc1Nc1cnn2ccccc12 [Example 43, 2-(((1R,2S)-2-aminocyclohexyl)amino)-4-(pyrazolo[1,5-a]pyridin-3-ylamino)pyrimidine-5-carboxamide]
0.001 to 0.01	NC(=O)c1cnc(N[C@@H]2CCCC[C@@H]2N)nc1Nc1csc2ncccc12 [Example 44, 2-(((1R,2S)-2-aminocyclohexyl)amino)-4-(thieno[2,3-b]pyridin-3-ylamino)pyrimidine-5-carboxamide]
0.01 to 0.1	NC(=O)c1cnc(N[C@@H]2CCCC[C@@H]2N)nc1Nc1cncc(F)c1 [Example 45]
0.01 to 0.1	Cc1cncc(Nc2nc(N[C@@H]3CCCC[C@@H]3N)ncc2C(N)=O)c1 [Example 46, 2-(((1R,2S)-2-aminocyclohexyl)amino)-4-((5-methylpyridin-3-yl)amino)pyrimidine-5-carboxamide]
0.01 to 0.1	COc1cncc(Nc2nc(N[C@@H]3CCCC[C@@H]3N)ncc2C(N)=O)c1 [Example 47, 2-(((1R,2S)-2-aminocyclohexyl)amino)-4-((5-methoxypyridin-3-yl)amino)pyrimidine-5-carboxamide]
0.01 to 0.1	NC(=O)c1cnc(N[C@@H]2CCCC[C@@H]2N)nc1Nc1cncc(-n2cccn2)c1 [Example 48, 4-((5-(1H-pyrazol-1-yl)pyridin-3-yl)amino)-2-(((1R,2S)-2-aminocyclohexyl)amino)pyrimidine-5-carboxamide]
0.001 to 0.01	Cc1cc(Nc2nc(N[C@@H]3CCCC[C@@H]3N)ncc2C(N)=O)sn1 [Example 49, 2-(((1R,2S)-2-aminocyclohexyl)amino)-4-((3-methylisothiazol-5-yl)amino)pyrimidine-5-carboxamide]
0.01 to 0.1	NC(=O)c1cnc(N[C@@H]2CCOC[C@@H]2N)nc1Nc1cccc(Cl)c1 [Example 50, 2-(((3R,4R)-3-aminotetrahydro-2H-pyran-4-yl)amino)-4-((3-chlorophenyl)amino)pyrimidine-5-carboxamide]
0.01 to 0.1	NC(=O)c1cnc(N[C@@H]2CCOC[C@@H]2N)nc1Nc1ccc(Cl)cc1 [Example 51, 2-(((3R,4R)-3-aminotetrahydro-2H-pyran-4-yl)amino)-4-((4-chlorophenyl)amino)pyrimidine-5-carboxamide]
0.1 to 1	NC(=O)c1cnc(N[C@@H]2CCOC[C@@H]2N)nc1Nc1ccccc1 [Example 52, 2-(((3R,4R)-3-aminotetrahydro-2H-pyran-4-yl)amino)-4-(phenylamino)pyrimidine-5-carboxamide]
0.01 to 0.1	N#Cc1cccc(Nc2nc(N[C@@H]3CCOC[C@@H]3N)ncc2C(N)=O)c1 [Example 53, 2-(((3R,4R)-3-aminotetrahydro-2H-pyran-4-yl)amino)-4-((3-cyanophenyl)amino)pyrimidine-5-carboxamide]
0.1 to 1	N#Cc1ccc(Nc2nc(N[C@@H]3CCOC[C@@H]3N)ncc2C(N)=O)cc1 [Example 54, 2-(((3R,4R)-3-aminotetrahydro-2H-pyran-4-yl)amino)-4-((4-cyanophenyl)amino)pyrimidine-5-carboxamide]
0.01 to 0.1	CC[C@@H](Nc1ncc(C(N)=O)c(Nc2csc3ncccc23)n1)C(N)=O [Example 55, (R)-2-((1-amino-1-oxobutan-2-yl)amino)-4-(thieno[2,3-b]pyridin-3-ylamino)pyrimidine-5-carboxamide]
0.01 to 0.1	CC[C@@H](Nc1ncc(C(N)=O)c(Nc2cnn3ccccc23)n1)C(N)=O [Example 56, (R)-2-((1-amino-1-oxobutan-2-yl)amino)-4-(pyrazolo[1,5-a]pyridin-3-ylamino)pyrimidine-5-carboxamide]
0.01 to 0.1	CC[C@@H](Nc1ncc(C(N)=O)c(Nc2ccc3cccnc3c2)n1)C(N)=O [Example 57, (R)-2-((1-amino-1-oxobutan-2-yl)amino)-4-(quinolin-7-ylamino)pyrimidine-5-carboxamide]
0.01 to 0.1	CC[C@@H](Nc1ncc(C(N)=O)c(Nc2ccc(-c3cncs3)cc2)n1)C(N)=O [Example 58, (R)-2-((1-amino-1-oxobutan-2-yl)amino)-4-((4-(thiazol-5-yl)phenyl)amino)pyrimidine-5-carboxamide]
